Data reported in US20180148418A1, “AMIDO-SUBSTITUTED CYCLOHEXANE DERIVATIVES” (Bayer Pharma Aktiengesellschaft, priority 2015, published 2018).

How the values were obtained:
[1] = target: T1, TNKS2 (Homo sapiens, UniProt Q9H2K2); test: TNKS2 Assay B (auto-parsylation, [3H]-NAD+ SPA); type: biochemical; conditions: 6 nM TNKS2, auto-parsylation, over night at room temperature
T1 construct: purchased BPS Bioscience, San Diego, USA 80572 (TNKS2 Histone Ribosylation Assay Kit)
T1 sequence (Q9H2K2 1-1166): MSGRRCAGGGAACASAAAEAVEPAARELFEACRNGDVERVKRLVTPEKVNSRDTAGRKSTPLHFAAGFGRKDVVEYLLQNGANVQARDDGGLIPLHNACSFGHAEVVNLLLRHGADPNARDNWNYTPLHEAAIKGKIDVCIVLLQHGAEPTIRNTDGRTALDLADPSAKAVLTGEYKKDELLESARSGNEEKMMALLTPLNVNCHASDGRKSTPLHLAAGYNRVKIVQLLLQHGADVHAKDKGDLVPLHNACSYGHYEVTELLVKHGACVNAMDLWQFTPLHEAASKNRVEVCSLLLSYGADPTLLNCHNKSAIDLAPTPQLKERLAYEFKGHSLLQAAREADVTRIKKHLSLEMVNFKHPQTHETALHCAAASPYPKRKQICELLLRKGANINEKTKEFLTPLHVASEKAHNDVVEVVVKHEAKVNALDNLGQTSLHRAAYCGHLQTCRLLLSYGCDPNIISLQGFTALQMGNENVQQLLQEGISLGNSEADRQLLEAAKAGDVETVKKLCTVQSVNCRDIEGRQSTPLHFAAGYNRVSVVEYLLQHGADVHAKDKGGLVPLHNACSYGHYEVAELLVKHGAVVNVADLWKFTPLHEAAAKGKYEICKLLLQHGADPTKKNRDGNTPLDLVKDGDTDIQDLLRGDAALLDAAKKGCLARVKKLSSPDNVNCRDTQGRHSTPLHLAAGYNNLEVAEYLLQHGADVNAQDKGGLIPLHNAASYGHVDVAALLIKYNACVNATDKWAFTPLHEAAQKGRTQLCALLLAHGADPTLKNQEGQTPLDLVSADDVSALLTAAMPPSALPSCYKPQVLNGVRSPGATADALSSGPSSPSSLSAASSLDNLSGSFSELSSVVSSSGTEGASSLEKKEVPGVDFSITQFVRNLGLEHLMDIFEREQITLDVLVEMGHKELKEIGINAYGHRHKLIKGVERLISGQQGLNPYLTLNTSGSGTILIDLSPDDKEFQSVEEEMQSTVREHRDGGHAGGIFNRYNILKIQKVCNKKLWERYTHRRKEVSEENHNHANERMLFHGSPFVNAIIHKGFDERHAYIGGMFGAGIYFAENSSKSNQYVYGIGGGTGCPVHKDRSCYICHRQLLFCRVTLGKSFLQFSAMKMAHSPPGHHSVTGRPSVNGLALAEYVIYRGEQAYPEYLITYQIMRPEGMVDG

[2] = tested on: wildtype Wnt signaling cascade; test: HEK293 TOP assay (Super TopFlash luciferase reporter, Wnt-3a stimulated); type: cell-based; conditions: HEK293 TOP reporter cells, Wnt3a at EC50, 16 hours
In short: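 HEK293 cells stably carrying Super TopFlash (TOP) run in parallel with FOP cells, 10000/well plated 24 h ahead, stimulated with recombinant human Wnt-3a. Compounds tested 50 μM to 15 nM in 3.16-fold steps in CAFTY buffer pH 7.4 with 2 mM Ca^2+ and 0.01% BSA; luciferase read-out.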

[3] = tested on: HEK293 cells cotransfected with the FOP control vector; test: HEK293 FOP assay (control reporter with non-functional TCF elements); type: cell-based; conditions: 16 hours
In short: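 Stable HEK293 line carrying FOP control reporter (randomized non-functional TCF sites, with pcDNA3), Geneticin-selected, plated 24 h before assay. Stimulated with recombinant human Wnt-3a (2500-5 ng/ml) and compounds 50 μM–15 nM (3.16-fold steps) in CAFTY buffer pH 7.4 with 2 mM Ca2+, 0.01% BSA, run parallel to TOP line.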

Row | Structure (SMILES) | IC50 [1] [µM] | IC50 ([2]; Homo sapiens, HEK293, 16 h) [µM] | IC50 ([3]; Homo sapiens) [µM] | IC50 [2] [µM] | IC50 [3] [µM]
1 | Cc1cc(NC(=O)[C@H]2CC[C@H](NC(=O)c3[nH]cnc3C(=O)NCC(C)(C)O)CC2)c(Cl)cc1F [Example 100, N^5-{trans-4-[(2-chloro-4-fluoro-5-methylphenyl)carbamoyl]cyclohexyl}-N^4-(2-hydroxy-2-methylpropyl)-1H-imidazole-4,5-dicarboxamide] | 0.11 | 0.2 | 39 |  | 
2 | Cc1cc(C)n2ncc(C(=O)NC34CCC(C(=O)Nc5c(F)cc(F)cc5Cl)(CC3)CC4)c2n1 [Example 127, N-{4-[(2-chloro-4,6-difluorophenyl)carbamoyl]bicyclo[2.2.2]oct-1-yl}-5,7-dimethylpyrazolo[1,5-a]pyrimidine-3-carboxamide] | 0.3 | 0.22 | ≥ 50 |  | 
3 | COC(C)(C)CNC(=O)c1nc[nH]c1C(=O)N[C@H]1CC[C@H](C(=O)Nc2cc(C(F)(F)F)ccc2Cl)CC1 [Example 144, N^5-(trans-4-{[2-chloro-5-(trifluoromethyl)phenyl]carbamoyl}cyclohexyl)-N^4-(2-methoxy-2-methylpropyl)-1H-imidazole-4,5-dicarboxamide] | 0.23 | 0.25 | 25 |  | 
4 | O=C(NC12CCC(C(=O)Nc3cnccc3Cl)(CC1)CC2)c1cnn2cccnc12 [Example 120, N-{4-[(4-chloropyridin-3-yl)carbamoyl]bicyclo[2.2.2]oct-1-yl}pyrazolo[1,5-a]pyrimidine-3-carboxamide] | 0.26 | 0.14 | 7.1 |  | 
5 | CC(C)(O)CNC(=O)c1nc[nH]c1C(=O)N[C@H]1CC[C@H](C(=O)Nc2cc(C(F)(F)F)ccc2Cl)CC1 [Example 145, N^5-(trans-4-{[2-chloro-5-(trifluoromethyl)phenyl]carbamoyl}cyclohexyl)-N^4-(2-hydroxy-2-methylpropyl)-1H-imidazole-4,5-dicarboxamide] | 0.28 | 0.15 | 15 |  | 
6 | COC(C)(C)CNC(=O)c1nc[nH]c1C(=O)N[C@H]1CC[C@H](C(=O)Nc2cnccc2Cl)CC1 [Example 98, N^5-{trans-4-[(4-chloropyridin-3-yl)carbamoyl]cyclohexyl}-N^4-(2-methoxy-2-methylpropyl)-1H-imidazole-4,5-dicarboxamide] | 0.039 | 0.57 | ≥ 50 |  | 
7 | Cc1cc(C)n2ncc(C(=O)N[C@H]3CC[C@H](C(=O)Nc4ccncc4Cl)CC3)c2n1 [Example 102, N-{trans-4-[(3-chloropyridin-4-yl)carbamoyl]cyclohexyl}-5,7-dimethylpyrazolo[1,5-a]pyrimidine-3-carboxamide] | 0.2 | 0.12 | ≥ 50 |  | 
8 | O=C(NCC1CCCO1)c1nc[nH]c1C(=O)N[C@H]1CC[C@H](C(=O)Nc2cnccc2Cl)CC1 (stereo partly drawn) [Example 97, N^5-{trans-4-[(4-chloropyridin-3-yl)carbamoyl]cyclohexyl}-N^4-(tetrahydrofuran-2-ylmethyl)-1H-imidazole-4,5-dicarboxamide] | 0.039 | 0.034 | 18 |  | 
9 | CNC(=O)c1[nH]cnc1C(=O)NC1CCC(C(=O)Nc2ccc(F)cc2Cl)CC1OC (stereo not drawn) [Example 36, N^4-{(1α,2β,4β)-4-[(2-chloro-4-fluorophenyl)carbamoyl]-2-methoxycyclohexyl}-N^5-methyl-1H-imidazole-4,5-dicarboxamide] | > 10 |  |  | 4.9 | ≥ 50
10 | Cc1cc(C)n2ncc(C(=O)NC34CCC(C(=O)Nc5cc(C)c(F)cc5Cl)(CC3)CC4)c2n1 [Example 126, N-{4-[(2-chloro-4-fluoro-5-methylphenyl)carbamoyl]bicyclo[2.2.2]oct-1-yl}-5,7-dimethylpyrazolo[1,5-a]pyrimidine-3-carboxamide] | 0.065 | 0.19 | ≥ 50 |  | 
11 | CNC(=O)c1nc[nH]c1C(=O)N[C@H]1CC[C@H](C(=O)Nc2c(F)cc(F)cc2Cl)CC1 [Example 6, N^5-{trans-4-[(2-chloro-4,6-difluorophenyl)carbamoyl]cyclohexyl}-N^4-methyl-1H-imidazole-4,5-dicarboxamide] | 0.06 | 0.055 | ≥ 50 |  | 

The next lines start with results.

Row | IC50 [1] [µM] | IC50 ([2]; Homo sapiens, HEK293, 16 h) [µM] | Structure (SMILES) | IC50 ([3]; Homo sapiens) [µM] | IC50 [2] [µM] | IC50 [3] [µM]
12 | 0.029 | 0.038 | Cc1cc(C)n2ncc(C(=O)N[C@H]3CC[C@H](C(=O)Nc4c(F)cc(F)cc4Cl)CC3)c2n1 [Example 135, N-{trans-4-[(2-chloro-4,6-difluorophenyl)carbamoyl]cyclohexyl}-5,7-dimethylpyrazolo[1,5-a]pyrimidine-3-carboxamide] | ≥ 50 |  | 
13 | 0.0047 | 0.0012 | O=C(N[C@H]1CC[C@@]2(CCN(c3ccc(F)cc3Cl)C2=O)CC1)c1cnn2cccnc12 [Example 136, N-[(trans)-2-(2-chloro-4-fluorophenyl)-1-oxo-2-azaspiro[4.5]dec-8-yl]pyrazolo[1,5-a]pyrimidine-3-carboxamide] | ≥ 50 |  | 
14 | 0.19 | 0.47 | Cc1cc(NC(=O)C23CCC(NC(=O)c4cnc5cccnn45)(CC2)CC3)c(Cl)cc1F [Example 122, N-{4-[(2-chloro-4-fluoro-5-methylphenyl)carbamoyl]bicyclo[2.2.2]oct-1-yl}imidazo[1,2-b]pyridazine-3-carboxamide] | ≥ 50 |  | 
15 | 0.15 | 0.11 | Cc1cc(F)cc(Cl)c1NC(=O)[C@H]1CC[C@H](NC(=O)c2cnn3cccnc23)CC1 [Example 151, N-{trans-4-[(2-chloro-4-fluoro-6-methylphenyl)carbamoyl]cyclohexyl}pyrazolo[1,5-a]pyrimidine-3-carboxamide] | ≥ 50 |  | 
16 | 0.066 | 0.088 | Cc1cnc2c(C(=O)N[C@H]3CC[C@H](C(=O)Nc4ccncc4Cl)CC3)cnn2c1 [Example 104, N-{trans-4-[(3-chloropyridin-4-yl)carbamoyl]cyclohexyl}-6-methyl pyrazolo[1,5-a]pyrimidine-3-carboxamide] | ≥ 50 |  | 
17 | 0.0033 | 5 | Cc1cnc2c(C(=O)N[C@H]3CC[C@@]4(CCN(c5ccc(F)cc5Cl)C4=O)CC3)cnn2c1 [Example 137, N-[(trans)-2-(2-chloro-4-fluorophenyl)-1-oxo-2-azaspiro[4.5]dec-8-yl]-6-methylpyrazolo[1,5-a]pyrimidine-3-carboxamide] | ≥ 50 |  | 
18 | 0.007 | 0.0061 | O=C(N[C@H]1CC[C@@]2(CCN(c3ccc(F)cc3Cl)C2=O)CC1)c1cnc2cccnn12 [Example 138, N-[(trans)-2-(2-chloro-4-fluorophenyl)-1-oxo-2-azaspiro[4.5]dec-8-yl]imidazo[1,2-b]pyridazine-3-carboxamide] | ≥ 50 |  | 
19 | 0.086 | 0.27 | COCc1cc(C)n2ncc(C(=O)N[C@H]3CC[C@H](C(=O)Nc4ccc(F)cc4Cl)CC3)c2n1 [Example 110, N-{trans-4-[(2-chloro-4-fluorophenyl)carbamoyl]cyclohexyl}-5-(methoxymethyl)-7-methylpyrazolo[1,5-a]pyrimidine-3-carboxamide] | ≥ 50 |  | 
20 | 0.0059 | 0.0024 | COCCNC(=O)c1nc[nH]c1C(=O)N[C@H]1CC[C@@]2(CCN(c3ccc(F)cc3Cl)C2=O)CC1 [Example 163, N^5-[(trans)-2-(2-chloro-4-fluorophenyl)-1-oxo-2-azaspiro[4.5]dec-8-yl]-N^4-(2-methoxyethyl)-1H-imidazole-4,5-dicarboxamide] | ≥ 50 |  | 
